Measurements reported in ChEMBL document CHEMBL1155774, “Pharmacokinetics, safety, and hydrolysis of oral pyrroloquinazolinediamines administered in single and multiple doses in rats” (Antimicrob Agents Chemother, 2007).

Assays:
Plasma = assay: Metabolic stability in Sprague-Dawley rat plasma assessed as formation of pyrroloquinazolinediamine after 30 mins; assay type: ADME, cell-free; settings: 0.5 h
[1] = Toxicity in intragastrically dosed Sprague-Dawley rat assessed as maximum tolerated dose; assay type: organism-based; settings: in vivo, po
Rattus norvegicus [2] = assay: Anorexic toxicity in intragastrically dosed Sprague-Dawley rat assessed as ratio of body weight change to day of weight change at 1170 umol/kg administered as single dose after 14 days; assay type: organism-based; settings: in vivo, po, 336 h
Rattus norvegicus [3] = assay: Elimination half life in intragastrically dosed Sprague-Dawley rat assessed as bisacetamide pyrroloquinazolinediamine level at 95 umol/kg administered as single dose; assay type: ADME, organism-based; settings: in vivo, po
Rattus norvegicus [4] = assay: Tmax in intragastrically dosed Sprague-Dawley rat assessed as pyrroloquinazolinediamine level at 95 umol/kg administered as single dose; assay type: ADME, organism-based; settings: in vivo, po
Rattus norvegicus [5] = assay: Elimination half life in intragastrically dosed Sprague-Dawley rat assessed as monoacetamide pyrroloquinazolinediamine level at 95 umol/kg administered as single dose; assay type: ADME, organism-based; settings: in vivo, po
Rattus norvegicus [6] = assay: Toxicity in intragastrically dosed Sprague-Dawley rat at 2340 umol/kg; assay type: organism-based; settings: in vivo, po
Rattus norvegicus [7] = assay: Cmax in intragastrically dosed Sprague-Dawley rat assessed as pyrroloquinazolinediamine level at 47.6 umol/kg administered daily for 3 days measured on day 1; assay type: ADME, organism-based; parameters: dose 47.6 umol/kg, route intragastric; settings: in vivo, po, 72 h
Rattus norvegicus [8] = assay: AUC (0 to infinity) in intragastrically dosed Sprague-Dawley rat assessed as pyrroloquinazolinediamine level at 47.6 umol/kg administered daily for 3 days measured on day 3; assay type: ADME, organism-based, Plasma; parameters: dose 47.6 umol/kg, time infinity, route intragastric; settings: in vivo, po, 72 h
Rattus norvegicus [9] = assay: Bioavailability in intragastrically dosed Sprague-Dawley rat assessed as pyrroloquinazolinediamine level at 47.6 umol/kg administered daily for 3 days measured on day 3; assay type: ADME, organism-based; settings: in vivo, po, 72 h
Rattus norvegicus [10] = assay: AUC (0 to infinity) in intragastrically dosed Sprague-Dawley rat assessed as pyrroloquinazolinediamine level at 95 umol/kg administered as single dose; assay type: ADME, organism-based, Plasma; parameters: dose 95 umol/kg, time infinity, route intragastric; settings: in vivo, po
Rattus norvegicus [11] = assay: Anorexic toxicity in intragastrically dosed Sprague-Dawley rat assessed as ratio of body weight change to day of weight change at 47.6 umol/kg administered daily for 3 days measured after 14 days; assay type: organism-based; settings: in vivo, po, 336 h
Rattus norvegicus [12] = assay: Cmax in intragastrically dosed Sprague-Dawley rat assessed as pyrroloquinazolinediamine level at 47.6 umol/kg administered daily for 3 days measured on day 3; assay type: ADME, organism-based; parameters: dose 47.6 umol/kg, route intragastric; settings: in vivo, po, 72 h
Rattus norvegicus [13] = assay: Elimination half life in intragastrically dosed Sprague-Dawley rat assessed as pyrroloquinazolinediamine level at 47.6 umol/kg administered daily for 3 days measured on day 3; assay type: ADME, organism-based; settings: in vivo, po, 72 h
Rattus norvegicus [14] = assay: Elimination half life in intragastrically dosed Sprague-Dawley rat assessed as pyrroloquinazolinediamine level at 95 umol/kg administered as single dose; assay type: ADME, organism-based; settings: in vivo, po
Rattus norvegicus [15] = assay: Anorexic toxicity in intragastrically dosed Sprague-Dawley rat assessed as ratio of body weight change to day of weight change at 2340 umol/kg administered as single dose after 14 days; assay type: organism-based; settings: in vivo, po, 336 h
Rattus norvegicus [16] = assay: Anorexic toxicity in intragastrically dosed Sprague-Dawley rat assessed as ratio of body weight change to day of weight change at 780 umol/kg administered as single dose after 14 days; assay type: organism-based; settings: in vivo, po, 336 h
Rattus norvegicus [17] = assay: Cmax in intragastrically dosed Sprague-Dawley rat assessed as pyrroloquinazolinediamine level at 95 umol/kg administered as single dose; assay type: ADME, organism-based; parameters: dose 95 umol/kg, route intragastric; settings: in vivo, po
Rattus norvegicus [18] = assay: Tmax in intragastrically dosed Sprague-Dawley rat assessed as pyrroloquinazolinediamine level at 47.6 umol/kg administered daily for 3 days measured on day 1; assay type: ADME, organism-based; settings: in vivo, po, 72 h
Rattus norvegicus [19] = assay: Tmax in intragastrically dosed Sprague-Dawley rat assessed as pyrroloquinazolinediamine level at 47.6 umol/kg administered daily for 3 days measured on day 3; assay type: ADME, organism-based; settings: in vivo, po, 72 h
Rattus norvegicus [20] = assay: Metabolic stability in intragastrically dosed Sprague-Dawley rat assessed as formation of pyrroloquinazolinediamine; assay type: ADME, organism-based; settings: in vivo, po
Rattus norvegicus [21] = assay: Anorexic toxicity in intragastrically dosed Sprague-Dawley rat assessed as ratio of body weight change to day of weight change at 11.9 umol/kg administered daily for 3 days measured after 14 days; assay type: organism-based; settings: in vivo, po, 336 h
Rattus norvegicus [22] = assay: Anorexic toxicity in intragastrically dosed Sprague-Dawley rat assessed as ratio of body weight change to day of weight change at 190 umol/kg administered daily for 3 days measured after 14 days; assay type: organism-based; settings: in vivo, po, 336 h
Rattus norvegicus [23] = assay: Bioavailability in intragastrically dosed Sprague-Dawley rat assessed as pyrroloquinazolinediamine level at 47.6 umol/kg administered daily for 3 days measured on day 1; assay type: ADME, organism-based; settings: in vivo, po, 72 h
Rattus norvegicus [24] = assay: AUC in intragastrically dosed Sprague-Dawley rat assessed as monoacetamide pyrroloquinazolinediamine level at 95 umol/kg administered as single dose; assay type: ADME, organism-based, Plasma; settings: in vivo, po
Rattus norvegicus [25] = assay: Bioavailability in intragastrically dosed Sprague-Dawley rat assessed as pyrroloquinazolinediamine level at 95 umol/kg administered as single dose; assay type: ADME, organism-based; settings: in vivo, po
Rattus norvegicus [26] = assay: Elimination half life in intragastrically dosed Sprague-Dawley rat assessed as pyrroloquinazolinediamine level at 47.6 umol/kg administered daily for 3 days measured on day 1; assay type: ADME, organism-based; settings: in vivo, po, 72 h
Rattus norvegicus [27] = assay: Anorexic toxicity in intragastrically dosed Sprague-Dawley rat assessed as ratio of body weight change to day of weight change at 195 umol/kg administered as single dose after 14 days; assay type: organism-based; settings: in vivo, po, 336 h
Rattus norvegicus [28] = assay: Anorexic toxicity in intragastrically dosed Sprague-Dawley rat assessed as ratio of body weight change to day of weight change after 14 days; assay type: organism-based; settings: in vivo, po, 336 h
Rattus norvegicus [29] = assay: Total AUC in intragastrically dosed Sprague-Dawley rat assessed as pyrroloquinazolinediamine level at 47.6 umol/kg administered daily for 3 days measured on day 3; assay type: ADME, organism-based; parameters: dose 47.6 umol/kg, route intragastric, time AUCmax; settings: in vivo, po, 72 h
Rattus norvegicus [30] = assay: AUC (0 to infinity) in intragastrically dosed Sprague-Dawley rat assessed as pyrroloquinazolinediamine level at 47.6 umol/kg administered daily for 3 days measured on day 1; assay type: ADME, organism-based, Plasma; parameters: dose 47.6 umol/kg, time infinity, route intragastric; settings: in vivo, po, 72 h
Rattus norvegicus [31] = assay: AUC in intragastrically dosed Sprague-Dawley rat assessed as bisacetamide pyrroloquinazolinediamine level at 95 umol/kg administered as single dose; assay type: ADME, organism-based, Plasma; settings: in vivo, po
Rattus norvegicus [32] = assay: Anorexic toxicity in intragastrically dosed Sprague-Dawley rat assessed as ratio of body weight change to day of weight change at 23.8 umol/kg administered daily for 3 days measured after 14 days; assay type: organism-based; settings: in vivo, po, 336 h
Rattus norvegicus [33] = assay: Anorexic toxicity in intragastrically dosed Sprague-Dawley rat assessed as ratio of body weight change to day of weight change at 1560 umol/kg administered as single dose after 14 days; assay type: organism-based; settings: in vivo, po, 336 h
Rattus norvegicus [34] = assay: Anorexic toxicity in intragastrically dosed Sprague-Dawley rat assessed as ratio of body weight change to day of weight change at 95 umol/kg administered daily for 3 days measured after 14 days; assay type: organism-based; settings: in vivo, po, 336 h
Rattus norvegicus [35] = assay: Toxicity in intragastrically dosed Sprague-Dawley rat assessed as mortality at 2340 umol/kg administered as single dose after 14 days; assay type: organism-based; settings: in vivo, po, 336 h
[36] = Toxicity in intragastrically dosed Sprague-Dawley rat; assay type: organism-based; settings: in vivo, po

SMILES | MTD [1] | Ratio (Rattus norvegicus [2]) | Tmax (Rattus norvegicus [4]) | Cmax (Rattus norvegicus [7]) | AUC (Rattus norvegicus [8]) | F (Rattus norvegicus [9]) | AUC (Rattus norvegicus [10]) | Ratio (Rattus norvegicus [11]) | Cmax (Rattus norvegicus [12]) | t1/2 (Rattus norvegicus [13]) | t1/2 (Rattus norvegicus [14]) | Ratio (Rattus norvegicus [16]) | Cmax (Rattus norvegicus [17]) | Tmax (Rattus norvegicus [18]) | Tmax (Rattus norvegicus [19]) | Ratio (Rattus norvegicus [21]) | F (Rattus norvegicus [23]) | F (Rattus norvegicus [25]) | t1/2 (Rattus norvegicus [26]) | Ratio (Rattus norvegicus [27]) | further results
CC(=O)N(C(C)=O)c1nc(N(C(C)=O)C(C)=O)c2c(ccc3c2ccn3Cc2ccccc2C(F)(F)F)n1 | 2340 µmol/kg | 2.76 | 5.33 h | 31.23 ng/mL | 1250.1 ng·h/mL | 26.96% | 1047.3 ng·h/mL | 2.06 | 30.84 ng/mL | 17.66 h | 13.2 h | 2.47 | 60.5 ng/mL | 7 h | 5.67 h | 2.46 | 16.49% | 11.45% | 12.86 h | 2.55 | Activity (Plasma): 49%; t1/2 (Rattus norvegicus [3]): 12.64 h; t1/2 (Rattus norvegicus [5]): 13.16 h; Activity (Rattus norvegicus [6]): Non-toxic; Ratio (Rattus norvegicus [15]): 1.03; Activity (Rattus norvegicus [20]): 84%; Ratio (Rattus norvegicus [22]): -0.89; AUC (Rattus norvegicus [24]): 176.5 ng·h/mL; ID50 (Rattus norvegicus [28]): 140.43 µmol/kg; AUC (Rattus norvegicus [29]): 1903.5 ng·h/mL; AUC (Rattus norvegicus [30]): 705.9 ng·h/mL; AUC (Rattus norvegicus [31]): 24.9 ng·h/mL; Ratio (Rattus norvegicus [32]): 2.61; Ratio (Rattus norvegicus [33]): 2.08; Ratio (Rattus norvegicus [34]): 1.18
CCOC(=O)Nc1nc(NC(=O)OCC)c2c(ccc3c2ccn3Cc2ccccc2C(F)(F)F)n1 | 1170 µmol/kg | 0.84 | 3.83 h | 59.46 ng/mL | 1529.6 ng·h/mL | 31.06% | 1381.4 ng·h/mL | 0.71 | 63.36 ng/mL | 16.93 h | 13.59 h | 2.21 | 108.7 ng/mL | 3 h | 3.33 h | 2.42 | 20.45% | 14.86% | 13.29 h | 2.49 | Activity (Rattus norvegicus [35]): Toxic; LD50 [36]: 1570 µmol/kg; ID50 (Rattus norvegicus [28]): 60.65 µmol/kg; AUC (Rattus norvegicus [29]): 2856.1 ng·h/mL; AUC (Rattus norvegicus [30]): 875.5 ng·h/mL; Ratio (Rattus norvegicus [32]): 1.88; Ratio (Rattus norvegicus [34]): -0.65
